Assay results: US10758609B2, “Cross-reactive T-cell epitopes of HIV, SIV, and FIV for vaccines in humans and cats” (priority 2015, dated 2020)

Assays:
[1] = tested on: CD3^+CD8^+ T cells from HIV^+ subjects; experiment: CFSE-based CD3+CD8+ T-cell proliferation, HIV+ human subjects
Procedure: (§1) The overlapping peptide pools of FIV and HIV-1 structural and enzyme proteins were used to stimulate the […] (PBMC) and the T cells from HIV^+ subjects as previously described for epitope mapping of HIV-1 and FIV p24 and reverse transcriptase (RT) (Sanou et al., 2013; Roff et al., 2015). The individual peptides in those peptide pools with positive responses to either interferon-γ (IFNγ) production and/or T-cell proliferation were determined with IFNγ ELISpot analysis and CFSE-based CD3^+CD4^+ and CD3^+CD8^+ T-cell proliferation analyses followed by the FACS-based intracellular staining (ICS) for cytolysin (perforin) and cytotoxin (granzyme A [GrzA] and GrzB) (Sanou et al., 2013; Roff et al., 2015). Besides viral p24 and RT proteins, the identical approach was used to identify anti-HIV/FIV T-cell epitopes on viral matrix (MA), nucleocapsid (NC), protease (PR), RNAase, integrase (IN), surface envelope (SU Env), and transmembrane envelope (TM Env) (FIG. 12).
(§2) Since our goal is to develop HIV vaccine for human use, the HIV peptides (Table 10) counterpart of the cross-reactive FIV peptides shown in Table 9 were tested with PBMC and T cells from HIV^+ subjects. The immune functions analyzed were human IFNγ production by ELISpot, cytolysin/cytotoxin production by ICS, and CFSE-based proliferation of CD3^+CD4^+ and CD3^+CD8^+ T cells from HIV^+ subjects (Table 10, the first set of results). In addition, the Los Alamos National Laboratories (LANL) database was used to identify the HLA allele(s) of the HIV epitope sequence with CTL activity that can exist within the sequence of the conserved counterpart HIV peptide (Table 9, LANL CTL). The bold HLA class-I supertypes and the bold 2-digit alleles are those on the “Optimal CD8^+ CTL Epitopes” list and those without bold are alleles for potential CTL epitope. […] The HLA class II such as HLA-DRB1 has yet to be fully classified into supertypes, and therefore the 4-digit resolution nomenclatures for the HLA-DRB1 alleles are shown.
(§3) The threshold for positive IFNγ and IL2 ELISpot responses is ≥50 spot-forming units (SFU) per 10^6 PBMC. The threshold for CFSE-based CD4^+ and CD8^+ T-cell proliferation is ≥2% CD4^+ T-cell CFSE^low or CD8^+ T-cell CFSE^low. The threshold of FACS-based intracellular cytokine staining (ICS) is ≥0.2%. […] The nine FIV peptides in black were used in the current MAP vaccine trial, whereas the 13 peptides in blue were not used. […] The MAPs and their corresponding peptide(s) were also tested for their ability to enhance or suppress in vitro FIV infection of feline PBMC (E/S of peptides and E/S of MAP).
(§4) The counterpart HIV-1 peptides of the FIV peptides were also tested for immunogenicity using PBMC and T cells from HIV^+ human subjects. […] The HRT7-1 and HRT7-2 were also tested with cells from HIV^+ subjects on ART. The threshold for positive IFNγ ELISpot response is ≥75 spot-forming units (SFU) per 10^6 PBMC. The threshold for CFSE-based CD4^+ (CD4^+ T) and CD8^+ (CD8^+ T) T-cell proliferation is ≥2% CD4^+ T-cell CFSE^low or CD8^+ T-cell CFSE^low. The threshold of intracellular cytokine staining (ICS) of FACS-based cytolysin (perforin) and cytotoxins (granzymes A and B) in CD4^+ T cells (CyCD4) and CD8^+ T cells (CyCD8) is ≥0.2%. […] The nine HIV-1 peptides in black are the counterpart FIV peptides used in the current MAP vaccine trial, whereas the 13 peptides in blue were not.

PBMC from HIV^+ subjects = experiment: IFNγ ELISpot of PBMC from HIV+ human subjects; format: cell-based
Procedure: as §1, §2
In addition, these peptides were also analyzed for IFNγ production, CD4^+ and CD8^+ T-cell proliferation, and cytolysin (perforin) and cytotoxin (granzyme A (GrzA) and GrzB)) mRNA production of PBMC or T cells from 8-30 HIV^+ human subjects. The frequency of responders is based on the individual responses of the vaccinated cats or HIV^+ human subjects after subtraction of the average of the responses of PBMC or T cells from 6-8 non-vaccinated cats or 8-20 HIV-negative human subjects.
as §3
The counterpart HIV-1 peptides of the FIV peptides were also tested for immunogenicity using PBMC and T cells from HIV^+ human subjects. […] The HRT7-1 and HRT7-2 were also tested with cells from HIV^+ subjects on ART. The threshold for positive IFNγ ELISpot response is ≥75 spot-forming units (SFU) per 10^6 PBMC. The threshold for CFSE-based CD4^+ (CD4^+ T) and CD8^+ (CD8^+ T) T-cell proliferation is ≥2% CD4^+ T-cell CFSE^low or CD8^+ T-cell CFSE^low. The threshold of intracellular cytokine staining (ICS) of FACS-based cytolysin (perforin) and cytotoxins (granzymes A and B) in CD4^+ T cells (CyCD4) and CD8^+ T cells (CyCD8) is ≥0.2%.

[2] = tested on: CD3^+CD4^+ T cells from HIV^+ subjects; experiment: CFSE-based CD3+CD4+ T-cell proliferation, HIV+ human subjects
Procedure: as §1, §2, §3, §4

[3] = tested on: CD8^+ T cells from HIV^+ subjects; experiment: FACS-based intracellular staining (ICS) for cytolysin (perforin) and cytotoxins (GrzA, GrzB) in CD8+ T cells; settings: HIV+ human subjects
Outline: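 Peptides tested with PBMC and T cells from HIV^+ subjects, some on ART. CFSE proliferation positive at ≥2% CFSE^low CD4^+ or CD8^+ T cells; intracellular perforin, granzyme A and B staining by FACS positive at ≥0.2%.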

[4] = tested on: CD4^+ T cells from HIV^+ subjects; settings: HIV+ human subjects
Procedure: as §1, §2, §4

[5] = tested on: PBMC from FIV-vaccinated cats; experiment: Feline IFNγ ELISpot of PBMC from vaccinated cats; format: cell-based, cat; settings: for IFNγ, frequency of responders: FIV peptides, FIV-vaccinated cats (prototype dual-subtype vaccine)
Procedure: (§5) IFNγ and IL2 ELISpot analyses were performed using feline IFNγ ELISpot and feline IL2 ELISpot kits (R&D Systems, Cat# SEL764 and SEL1890) as described. The threshold is defined as ≥50 spot forming units (SFU) per 1×10^6 PBMC when counted with MVS ELISpot Reader (MVS Pacific, LLC). Each result is an average of the duplicate samples after subtraction of the average value of the media controls.
(§6) Concurrently, the overlapping peptide pools of FIV structural/enzyme proteins were used to stimulate PBMC and T cells from FIV-vaccinated cats. These cats were vaccinated with prototype dual-subtype FIV vaccine which was the prototype to our commercial FIV vaccine (Coleman et al., 2014). The feline assays (Example 1) equivalent to those of human assays (Sanou et al., 2013; Roff et al., 2015) were used except for ICS analysis. In place of ICS for cytolysin/cytotoxins, IL2 ELISpot analysis was performed. […] The results for FIV-vaccinated cats included IFNγ and IL2 productions and CD3^+CD4+ and CD3^+CD8^+ T-cell proliferation (Table 9, the second set of results).
(§7) The feline IFNγ and L2 ELISpot analyses of PBMC to FIV MAPs and peptides were performed as previously described (Abbott et al. (2012)) using feline IFNγ modular kit (R&D Systems, Minneapolis, Minn.) and feline IL2 modular kit (R&D Systems). All results shown in the figures (FIGS. 8A-1, 8B-1, 8A-2, 8B-2, 8A-3, 8B-3) are after subtracting the average value of the results from all control cats.
(§8) The second parameter evaluated was the ability of the peripheral blood mononuclear cells (PBMC) from vaccinated and control cats to produce IL2 and interferon-γ (IFNγ) proteins in responses to FIV MAPs and peptides (FIGS. 8A-1, 8A-2, 8A-3, 8B-1, 8B-2, 8B-3) using feline IL2 and IFNγ ELISpot assays (Aranyos et al. (2016); Abbott et al. (2012)). IL2 enhances the proliferation of FIV-specific CD4^+ T cells and CD8^+ T cells. IFNγ is known enhance the FIV-specific CTL activities in vaccinated cats (Abbas et al. (2015)).

[6] = tested on: PBMC from FIV-vaccinated cats; experiment: Feline IL2 ELISpot of PBMC from vaccinated cats; format: cell-based, cat; settings: FIV peptides
Procedure: as §5, §6, §7, §8

FIVFC1 = experiment: FIV enhancement and suppression (E/S) analysis of in vitro FIV infection of feline PBMC; format: cell-based, feline immunodeficiency virus; settings: FIV peptides; in vitro FIV infection of uninfected cat PBMC
Procedure: FIV viral enhancement or suppression was determined using a 48-well modification of the method described for detecting FIV enhancing activity of IFNγ and FIV suppressive activity of IFNα [37]. […] MAP1c contained four branched chains of peptide Fp4-3. T-cell mitogen concanavalin A (ConA) at 4 μg/mL was used as an infection enhancing control. Six hours after the culturing with peptide, MAP, or ConA, varying dilutions of FIVFC1 were added to the wells. Seventy-two hours later the cells were re-cultured in fresh culture media with ConA-stimulated autologous PBMC (0.25-0.5×10^6) using the same amount of corresponding peptide, MAP, ConA or media. On Day 7, 10, and 13 of culture, 0.5 mL of culture fluid was collected and 0.5 mL of fresh media added to maintain a consistent volume. The harvested culture samples were analyzed for FIV titer using the previously described RT assay. The results are shown as the end-point dilution titer from two studies using PBMC from different SPF donors.
Statistical analysis. The statistically significant differences between the end-point dilution titers of the peptide or MAP culture samples and either the virus control samples or specific MAP culture samples were calculated using a paired Student t-test with a two-tailed distribution (SigmaPlot version 11.0). Statistical comparisons between pre and post-vaccination(s) were similarly performed. The comparison was considered statistically significant when p<0.05.

[7] = tested on: feline CD3^+CD4^+ T cells; experiment: CFSE-based feline CD3+CD4+ T-cell proliferation; set-up: species or system cat; settings: FIV peptides; FIV-vaccinated cats
Procedure: (§9) Carboxyfluorescein diacetate succinimide ester (CFSE)-proliferation was performed according to the manufacturer's protocol (Invitrogen, Grand Island, N.Y.) and processed using a previously described modification. The modification consisted of 2.5×10^5 CFSE-labeled feline PBMC stimulated for 5 days (37° C., 5% CO2) with 4 μg/mL peptide in culture media (RPMI medium 25 µg/mL gentamycin, and 10% heat-inactivated fetal bovine serum (FBS)). Peptide pools consisted of 3-5 overlapping peptides of 4 μg/mL each. The antibodies used for flow cytometry based proliferation analysis consisted of murine anti-feline (Fe) CD3 monoclonal antibody (MAb clone kindly provided by Drs. Yorihiro Nishimura and Takayuki Miyazawa; described in [32]) combined with secondary goat anti-mouse IgG3-APC/CY7 MAb (SouthernBiotech, Birmingham, Ala.; Cat#1100-19); and murine anti-FeCD4-PE MAb (SouthernBiotech, Cat#8130-09); and murine anti-FeCD8 MAb (MAb clone kindly provided by Dr. Nazareth Gengozian, described in [33]) with secondary goat anti-mouse IgG2a-PE/CY7 (Southern Biotech, Cat#1080-17). The murine anti-B220-APC MAb for detecting feline B cells (SouthernBiotech, Cat#1665-11) and previously described MAbs for CFSE were used for FACS phenotyping. Both FACS phenotyping and CFSE-proliferation analyses were performed with BD LSRII and FACSDiva™ Software (BD Biosciences, San Jose, Calif.). The final value for each sample was derived after subtraction of the average value of the media controls using a positive threshold of ≥1 CFSE^low.
as §6
(§10) Carboxyfluorescein diacetate succinimide ester (CFSE)-proliferation analysis was according to the manufacturer's protocol (Invitrogen-Fisher, Carlsbad, Calif.) and processed as previously described (Roff et al. (2015)) using the following modifications: anti-feline CD3 antibody ((clone NZM1), a generous gift from T. Miyazawa (Univ. of Tokyo, Japan)) in combination with APC-conjugated anti-mouse IgG3 (Southern Biotech, Birmingham, Ala.), PE-conjugated anti-feline CD4 antibody (Southern Biotech), and anti-feline CD8 antibody (gift from N. Gengozian, University of Tennessee (Gengozian et al. (1997))) in combination with PE/Cy7-conjugated anti-mouse IgG2b (Southern Biotech) to detect the proliferation of feline CD3^+CD4+ T cells and feline […]. All results shown in the figures (FIGS. 7A-1, 7B-1, 7A-2, 7B-2, 7A-3, 7B-3) are after subtracting the average value of each results from all control cats. The threshold of CFSE proliferation is ≥0.5 CFSE^low. […]

[8] = tested on: feline CD3^+CD8^+ T cells; experiment: CFSE-based feline CD3+CD8+ T-cell proliferation; set-up: species or system cat; settings: for CD8^+ T (T-cell proliferation), frequency of responders: FIV peptides
Procedure: as §9, §6, §10

[9] = HIV-1 epitope peptide, threshold ≥2% CFSElow
[10] = HIV-1 epitope peptide, threshold ≥0.2%
[11] = cats of Group 1, MAP Vaccine Trial 1 (FIG. 3)

Sequence	CD8+ T proliferation, frequency of responders [1, 9]	CD8^+ T (T-cell proliferation), frequency of responders ([1]; HIV-1 peptides)	IFNγ, frequency of responders (PBMC from HIV^+ subjects; HIV-1 epitope peptide, threshold ≥75 SFU per 10^6 PBMC)	IFNγ, frequency of responders (PBMC from HIV^+ subjects; HIV-1 peptides)	CD4+ T proliferation, frequency of responders [2, 9]	CDC4^+ T (T-cell proliferation), frequency of responders ([2]; HIV-1 peptides)	CyCD8: CD8+ T-cell cytolysin/cytotoxins (perforin, GrzA & B), frequency of responders [3, 10]	CyCD7, frequency of responders ([3]; HIV-1 peptides)	CyCD4: CD4+ T-cell cytolysin/cytotoxins (perforin, GrzA & B), frequency of responders [4, 10]	CyCD4 (cytolysin and cytotoxin production of CD4+ T cells), frequency of responders ([4]; HIV-1 peptides)	IFNγ, frequency of responders [5]	IFNγ production [5, 11]	IL2, frequency of responders [6]	FIV Test E/S (enhancer/suppressor analysis) (FIVFC1)	CDC4^+ T (T-cell proliferation), frequency of responders [7]	CD8^+ T (T-cell proliferation), frequency of responders ([8]; FIV-vaccinated cats)	Responder frequency in CD8+ T-cell proliferation ([8]; FIV-vaccinated cats, in vitro analyses (Table 9))	% CD8+ T-cell CFSE^low over % CD4+ T-cell CFSE^low ratio (CD8/CD4 response ratio) [8, 11]
KKDSTKWRKLVDFRE [HRT3-3]	+++ (40.1%-54% (+++))	+++ (40.1%-54% (+++))	+ (12.5%-25% (+))	+ (12.5%-25% (+))	++ (25.1%-40% (++))	++ (25.1%-40% (++))	++++ (>54% (++++))	++++ (>54% (++++))	++++ (>54% (++++))	++++ (>54% (++++))								
KKKSGKWRLIDFRVLNKL [FRT3-3/4]											+++ (40.1%-54% (+++))	531 SFU/10^6 PBMC	++++ (>54% (++++))	↓	— (0%-1.4%(—))	+++ (40.1%-54% (+++))	44.4%	9
RAWYLEALGKLAAIKAK [Fp10-2/3, overlapping peptide of MAP6]											— (0%-1.4%(—))		+++ (40.1%-54% (+++))	↓	— (0%-1.4%(—))	— (0%-1.4%(—))		
